The text below walks through data of PubChem BioAssay AID2823 (Broad Institute, 2010).

pIC50: −log10 of the molar value. Calls of active or inactive are those of the source. The rule behind the calls is not given here.

The target of the experiment is RanGTP-importin-beta complex (human Ran / KPNB1). Briefly: disruptors of RanGTP/KPNB1 binding – biochemical, FRET, CFP/YFP, cell-free homogeneous, confirmation (AID 2823). Particulars: CFP-Ran/YFP-importin-beta FRET ratio.
For the compound `CC(=O)[C@@H]1[C@@H](C)N(Cc2ccccc2)C(=O)N[C@H]1c1cccc(C(F)(F)F)c1`, the IC50 is > 50 µM (inactive).
As for `Cc1ccc(NC(=O)COC(=O)Cc2ccsc2)c(C)c1`, the IC50 is > 50 µM (inactive).
`CCOC(=O)/C(C#N)=C/c1ccc(N2CCN(C)CC2)cc1`: the pIC50 is 4.80.
Regarding `CC1=NN(C(=O)Cn2nc([N+](=O)[O-])cc2C)C(O)(C(F)(F)F)C1` (stereo not drawn), the IC50 was > 50 µM (inactive).
With `CCOC(=O)C1=C(C)NC2=C(C(=O)C(C(=O)OCC)C(c3ccc(OC)cc3)C2)C1c1ccccn1` (stereo not drawn), the pIC50 was 4.55.
As to `Cc1ccc(-c2nc3cc(N)ccc3o2)cc1`, the IC50 was > 50 µM (inactive).
On the same count and under the same terms, for `Cc1c(C=O)cnn1CCC(=O)O` the value was > 50 µM (inactive); for `N#CCCN(C(=O)Nc1ccc(Cl)cc1)c1ccccc1`, > 50 µM (inactive); for `Cc1nn(-c2ccccc2)c2sc(C(=O)NC3CCCCC3)cc12`, > 50 µM (inactive).
Same read-out and setting: as for `COc1ccc(NC(=O)CN2C(=O)CC(C)S(=O)(=O)c3ccccc32)cc1` (stereo not drawn), the figure is > 50 µM (inactive).
Still for that read-out and setting: for `Fc1ccc(N/N=C/C=C/c2ccccc2)c(F)c1` the value was > 50 µM (inactive).
On to `O=C(NC1=NCCS1)c1cc(-c2cccnc2)nc2ccccc12`, for which the IC50 was > 50 µM (inactive).
On the same count and under the same terms, as for `Cc1ccc(-c2ccc(/C=C(\C#N)C(N)=S)n2C)cc1`, the figure is > 50 µM (inactive).
Take `CCc1nc(N)c(C#N)c(-c2ccc(F)cc2)c1C`: the IC50 was > 50 µM (inactive).
Turning to `CC(C)Sc1nnc(CNC(=O)C23CC4CC(CC(C4)C2)C3)n1C1CCCCC1`, the IC50 was > 50 µM (inactive).
On to `Cc1nc2[nH]c(=O)c3c(n2n1)NC1=C(C(=O)CC(C)(C)C1)C3c1ccccc1` (stereo not drawn), for which the pIC50 was 5.47.
For the compound `CCOC(=O)c1sc(NC(=O)CSc2nc(C)cc(C)n2)c(C#N)c1C`, the IC50 is > 50 µM (inactive).
The same measure, in the same setting: for `Clc1ccc(/C=C\c2nccc3c2[nH]c2ccccc23)cc1` the value was > 50 µM (inactive); for `COc1cc2c(cc1OC)CN(Cc1ccccc1)CC2`, > 50 µM (inactive); for `O=[N+]([O-])c1cccc(-c2n[nH]c(=S)n2-c2ccc(Br)cc2)c1`, > 50 µM (inactive).
On the same count and under the same terms, as for `Cc1cc(C2C(C#N)=C(N)SC(N)=C2C#N)c(C)s1`, the figure is > 50 µM (inactive).
As for `COc1ccc(CCNC(=O)c2cc3c(=O)n4cccc(C)c4nc3n(CCCN3CCOCC3)c2=N)cc1`, the pIC50 is 5.31.
For the compound `COc1ccc(N2C(=O)CC(C#N)=C2N)cc1`, the IC50 is > 50 µM (inactive).
Same read-out and setting: as for `O=[N+]([O-])c1cc(CN2CCCC2)ccc1Sc1ccc(Cl)cc1`, the figure is > 50 µM (inactive); as for `Nc1nc(CSc2nnnn2-c2ccc(Cl)cc2)nc(N2CCOCC2)n1`, > 50 µM (inactive).
Still for that read-out and setting: for `CCn1c(=O)cc(N2CCOCC2)[nH]c1=O` the value was > 50 µM (inactive).
In the case of `Cc1c(CCC(=O)NCCCN2CCCC2=O)c(=O)oc2c(C)c(O)ccc12`, the negative-log IC50 (pIC50) is 4.81.
Still for that read-out and setting: as for `Cc1cc(N2C(=O)C(O)=C(C(=O)c3cc4ccccc4o3)C2c2cccc(Cl)c2)no1` (stereo not drawn), the figure is 4.44.
Turning to `CC1(C)CC(=O)C=C(Nc2ccccc2O)C1`, the IC50 is > 50 µM (inactive).
Same read-out and setting: for `Oc1ccccc1/C=N/Nc1cc(N2CCCC2)nc(N2CCCC2)n1` the value was > 50 µM (inactive); for `CN1CCCN(Cc2cccc3ccccc23)CC1`, > 50 µM (inactive); for `Cc1cccc(-c2nnc(NC(=O)c3ccc(N4C(=O)CCC4=O)cc3)s2)c1`, > 50 µM (inactive).
For the compound `Cc1ccc(S(=O)(=O)NC(C(=O)Oc2ccc3ccc(=O)oc3c2)c2ccccc2)cc1` (stereo not drawn), the pIC50 was 4.60.
On the same count and under the same terms, for `Cc1cccc2cc(C#N)c(NCCCn3ccnc3)nc12` the value was 4.72.
As to `Cc1ccc(NC(=S)NCCN2CCOCC2)cc1`, the IC50 was > 50 µM (inactive).
Same read-out and setting: for `N#C/C(=C\N1CCN(Cc2ccc3c(c2)OCO3)CC1)c1nc2ccccc2s1` the value was > 50 µM (inactive).
Still for that read-out and setting: for `Cc1nn(C)c(Oc2ccc(Cl)cc2)c1C(=O)O` the value was > 50 µM (inactive).
Same read-out and setting: for `Cc1ccc(C2=CC(c3ccccc3)n3ncnc3N2)c(C)c1` (stereo not drawn) the value was > 50 µM (inactive).
`CCOC(=O)C1CCN(C(=O)COC(=O)c2ccc3[nH]c4c(c3c2)CCCC4)CC1`: the IC50 was > 50 µM (inactive).
`CCn1nc(NC(=O)c2ccccn2)c2cc3cccc(C)c3nc21`: the pIC50 was 5.57.
For `O=C1CCCN2N=C(SCC(=O)N3N=C(c4ccc(Br)cc4)CC3c3ccc(F)cc3)SC2=N1` (stereo not drawn), the IC50 is > 50 µM (inactive).
On to `COc1cc2c(cc1OC)CN(Cc1cccs1)CC2`, for which the IC50 was > 50 µM (inactive).
Turning to `COC(=O)C(C)Oc1ccc2c(c1)O/C(=C\c1ccco1)C2=O` (stereo not drawn), the pIC50 is 4.81.
Turning to `Cn1cnc(S(=O)(=O)N2CCN(c3ccc(Cl)cc3)CC2)c1`, the IC50 is > 50 µM (inactive).
Turning to `CC1(C)CC(=O)C/C(=N\NC(=O)Cc2ccccc2)C1`, the IC50 is > 50 µM (inactive).
Still for that read-out and setting: as for `CCNc1nnc(CSc2nc3ccccc3s2)s1`, the figure is > 50 µM (inactive); as for `COc1ccccc1S(=O)Cc1ccc(C(=O)O)o1` (stereo not drawn), > 50 µM (inactive).
For `CCN1/C(=C2\SC(=S)N(Cc3ccccc3)C2=O)Sc2ccccc21`, the IC50 is > 50 µM (inactive).
The same measure, in the same setting: for `O=C(NCC1CCN(Cc2ccccc2Cl)CC1)Nc1ccccc1F` the value was > 50 µM (inactive).
Consider `COc1ccc(Cn2c(=N)c(C(=O)NC3CCCCC3)cc3c(=O)n4ccccc4nc32)cc1`, for which the pIC50 was 4.32.
`C=CCn1c(SCCOc2ccc(OC)cc2)nnc1C(CO)NC(=O)c1ccc(OC)cc1` (stereo not drawn): the IC50 is > 50 µM (inactive).
On the same count and under the same terms, for `COC(=O)c1cccnc1NC(=S)NNC(=O)c1ccccc1` the value was > 50 µM (inactive); for `CCCC(=O)NNc1c2ccccc2nc2ccccc12`, > 50 µM (inactive).
For `COCCCn1c(=N)c(C(=O)NCc2ccc3c(c2)OCO3)cc2c(=O)n3ccccc3nc21`, the pIC50 was 4.55.
Still for that read-out and setting: as for `C=CCN1C=CC(=CC=C(C#N)C#N)C=C1`, the figure is 4.54.
With `O=C(CCCO)NNc1c2ccccc2nc2ccccc12`, the IC50 was > 50 µM (inactive).
The same measure, in the same setting: for `CCCNS(=O)(=O)c1ccc2c(c1)CCCN2C(C)=O` the value was > 50 µM (inactive); for `CC(C)NC(=O)NC(=O)COC(=O)c1ccccc1O`, > 50 µM (inactive).
Still for that read-out and setting: as for `CCOC(=O)c1ccc(CNC(=O)CSc2nnc(-c3ccncc3)o2)cc1`, the figure is > 50 µM (inactive); as for `CCOc1ccc(C)cc1S(=O)(=O)Nc1ccc(Cl)cn1`, > 50 µM (inactive).
As to `COC(=O)C1=CN(Cc2ccc(OC)c(OC)c2)C=C(C(=O)OC)C1c1ccccc1F`, the negative-log IC50 (pIC50) was 5.01.
With `COc1ccccc1NC(=O)c1cc2ccccc2nc1C`, the IC50 was > 50 µM (inactive).
Turning to `CN1CCCN(C(=O)Cc2c(Cl)cccc2Cl)c2nc3ccccc3nc21`, the negative logarithm of the IC50 (pIC50) was 4.44.
As for `Cc1c(/C=N\NC(=O)C2COc3ccccc3O2)c2ccccc2n1C` (stereo not drawn), the IC50 was > 50 µM (inactive).
Same read-out and setting: for `O=C(CCN1CCC(c2ccc(Cl)s2)=N1)c1ccc(Cl)s1` the value was > 50 µM (inactive).
`Cc1ccc(S(=O)(=O)Nc2nc3ccccc3nc2NCc2ccco2)cc1`: the pIC50 is 4.74.
On to `Cc1cc(C=C(C#N)C#N)ccc1N1CCCC1`, for which the IC50 is > 50 µM (inactive).
For `CCN1CCc2c(sc(NC(=O)Cc3ccccc3)c2C(=O)OC)C1`, the IC50 is > 50 µM (inactive).
As for `CCc1cc(=O)oc2c(CNCc3ccc(OC)cc3OC)c(O)c(Cl)cc12`, the negative-log IC50 (pIC50) was 4.84.
On to `CCCc1cc(=O)oc2c(CN(CC)CC)c(O)c(Cl)cc12`, for which the negative-log IC50 (pIC50) is 4.36.
Take `COc1ccc(-c2nc(NC(=O)c3n[nH]c(=O)c4ccccc34)sc2C)cc1`: the IC50 was > 50 µM (inactive).
`NNc1nc2sc3c(c2c(=O)n1C1CCCCC1)CCN(Cc1ccccc1)C3`: the pIC50 is 5.57.
Take `CCN(CCO)C(=S)Nc1cc(C(=O)OC)ccc1C(=O)OC`: the IC50 is > 50 µM (inactive).
`COc1ccc2cc(-c3nc4ccccc4n3C)c(=O)oc2c1`: the negative-log IC50 (pIC50) is 4.72.
For the compound `COc1cc(CN2CCN(Cc3c[nH]c4ccccc34)CC2CCO)cc(OC)c1` (stereo not drawn), the IC50 is > 50 µM (inactive).
For the compound `CCOCCCn1c(=N)c(C(=O)NCc2ccc3c(c2)OCO3)cc2c(=O)n3cccc(C)c3nc21`, the pIC50 is 4.83.
Same read-out and setting: for `COC(=O)c1cc(=O)n2c(sc3ccccc32)c1C#N` the value was 5.88; for `Cc1cc(C)c(C2=CC(c3ccccc3)n3ncnc3N2)cc1C` (stereo not drawn), 4.41.
As for `Cc1ccc(N2CCN(c3ccc(C)cc3)C2c2ccccn2)cc1`, the IC50 was > 50 µM (inactive).
On the same count and under the same terms, for `CN(C)c1oc(-c2cccs2)nc1C#N` the value was > 50 µM (inactive); for `N#Cc1c(/N=C/c2ccc(O)cc2O)sc2c1C1CCN2CC1`, > 50 µM (inactive).
As to `Oc1c(C=Nc2ccccc2)sc2ccccc12`, the negative-log IC50 (pIC50) was 4.56.
Consider `Cc1cccc(C)c1N1CCN(S(=O)(=O)c2ccc(F)cc2)CC1`, for which the IC50 is > 50 µM (inactive).
On the same count and under the same terms, for `CCOC(=O)c1c(NC(=O)Nc2ccc(F)cc2)sc2c1CCN(C)C2` the value was > 50 µM (inactive).
As to `Cc1ccc(O)c(Nc2c3ccccc3nc3ccccc23)c1`, the pIC50 is 4.31.
On to `COc1ccc(-n2cnc3cc(NCc4cccs4)ccc32)cc1`, for which the IC50 is > 50 µM (inactive).
For the compound `N#Cc1c(N)nc2c(c1-c1ccccc1)CCC2`, the negative logarithm of the IC50 (pIC50) was 4.85.
Turning to `COCCNC(=O)C(C)OC(=O)c1cc2occc2n1C` (stereo not drawn), the IC50 was > 50 µM (inactive).
With `Cc1cccc(NC(=O)c2cc3c(s2)-c2c(C)cccc2OC3)n1`, the pIC50 is 5.13.
Turning to `CCN(C(=O)c1c(C)cc(=O)oc1C)c1ccc2c(c1)OCO2`, the IC50 was > 50 µM (inactive).
The same measure, in the same setting: as for `O=C(CN1C2CCCC1CC(NC(=O)c1ccco1)C2)Nc1ccccc1C(F)(F)F` (stereo not drawn), the figure is > 50 µM (inactive); as for `CC(C)(C)C(=O)NC(=S)Nc1ccc(S(=O)(=O)Nc2nccs2)cc1`, > 50 µM (inactive); as for `Clc1ccc(-c2ncc3ccccn23)cc1`, > 50 µM (inactive).
